Laboratory results reported in paper PMC8724172, “The effect of potent CYP2D6 inhibition on the pharmacokinetics and safety of deutetrabenazine in healthy volunteers” (European Journal of Clinical Pharmacology, 2021).

Key:
[1] = Open-label sequential drug-drug interaction study: plasma pharmacokinetics of deutetrabenazine and its metabolites without and with steady-state paroxetine; set-up: AUC0−t lower by a factor in presence of paroxetine / Cmax lower by a factor in presence of paroxetine: unit not given beside the values; conditions: for Cmax / AUC0-t / Tmax / t1/2 / AUC0–∞: human; for % Ratio of LS means (90% CI) (day 11)/(day 1), AUC0−t / % Ratio of LS means (90% CI) (day 11)/(day 1), AUC0−∞ / % Ratio of LS means (90% CI) (day 11)/(day 1), Cmax: deutetrabenazine + paroxetine vs deutetrabenazine alone; for Increase of half-life (t1/2) in presence of paroxetine / Increase of AUC0–∞ in presence of paroxetine / Increase of Cmax in presence of paroxetine: deutetrabenazine 22.5 mg; for Increase of half-life (t1/2) in presence of paroxetine: steady-state paroxetine vs alone; for Increase of AUC0–∞ in presence of paroxetine / Increase of Cmax in presence of paroxetine: population of 15 EM and 8 IM, steady-state paroxetine 20 mg daily vs alone
Text: This was an open-label sequential drug-drug interaction study in 24 healthy adult subjects who were CYP2D6 extensive metabolizers (EM) or CYP2D6 intermediate metabolizers (IM); Supplemental Table S1 provides the genotypes and phenotypes of the subjects.
Subjects checked into the clinic on day 1 and were confined through day 14. […] Those who met inclusion/exclusion criteria received a single dose of deutetrabenazine on day 1 followed by a 72-h washout. Subjects then received paroxetine on days 4 to 12 to achieve steady-state plasma concentrations of paroxetine by day 11. On day 11, another single dose of deutetrabenazine was administered. Triplicate 12-lead digital electrocardiograms (ECGs) were collected predose and for 10 h following deutetrabenazine dosing on day 1, and for 10 h on day 11, following paroxetine administration on day 10. Blood samples for measurement of plasma concentrations of deutetrabenazine and its metabolites were obtained on days 1 and 11 (predose, 1, 2, 2.5, 3, 3.5, 4, 4.5, 5, 6, 7, 8, 10, 12, and 16 h), days 2 and 12, at 24 and 36 h, days 3 and 13, at 48 and 60 h and days 4 and 14, at 72 h. Paroxetine trough levels were obtained pre-dose on days 9, 10, 11, and 12, and on day 13 at 24 h post the final paroxetine dose on day 12. Blood and urine samples were collected for clinical laboratory testing (hematology, serum chemistries, and urinalysis) at admission and after at least 10 h fasting and at study completion on day 14 or upon early withdrawal.
All participants received the following treatments, deutetrabenazine 22.5-mg oral dose as one 15-mg tablet + one 7.5-mg tablet on days 1 and 11 and one paroxetine 20 mg (Cadila Healthcare Ltd.) oral tablet on days 4 through 12. The deutetrabenazine 22.5-mg dose was administered with 237 mL of water in the morning approximately 30 min after a standardized breakfast meal with moderate fat content (35%). No food was allowed for at least 4 h postdose, and subjects were asked to remain upright for at least 4 h postdose, unless medically necessary.
Paroxetine 20 mg was administered in the morning with 237 mL water for 9 days (days 4 to 12) to ensure steady-state levels. On days 4 to 10 and 12, the paroxetine dose was administered in a fed state 30 min after breakfast. On day 11, as paroxetine can be administered without regard to food, subjects took the paroxetine dose under fasting conditions (at least 1 h prior to breakfast and 1.5 h prior to deutetrabenazine administration) following an overnight fast of at least 10 h. Subjects were asked to remain upright for at least 1 h after the paroxetine dose, unless medically necessary.
Validated liquid chromatography/tandem mass spectrometry methods were applied to assess plasma concentrations of paroxetine, deutetrabenazine, α- and β-HTBZ metabolites, and the O-desmethyl metabolites of α- and β-HTBZ. This was performed on a Sciex API 4000 instrument, equipped with a Turbo Ion Spray ion source operated in the positive ion mode and interfaced to a Shimadzu HPLC system fitted with a Waters XBridge C18 reverse phase column (3.5 µm; 50 × 2.1 mm) for paroxetine, deutetrabenazine, α-HTBZ and β-HTBZ or a Phenomenex Kinetex column (2.6 µm; 100 × 2.1 mm) for the O-desmethyl metabolites. The validated assay ranges were as follows: paroxetine 0.500 to 50.0 ng/mL, deutetrabenazine 0.100 to 10.0 ng/mL, deuterated α- and β-HTBZ 0.500 to 100 ng/mL, and 9-O- and 10-O-desmethyl metabolites of α-HTBZ and β-HTBZ 0.5 to 50.0 ng/mL. The methods were developed and validated by CPR Pharma Services, Pty, Ltd Australia, as described earlier.
Plasma concentrations, below the limit of quantitation (BLQ) of the assay, were designated a value of zero for initial and time points occurring at the end of the profile. For sampling time points between two quantifiable concentrations, plasma concentrations BLQ followed by a measurable concentration were set to the limit of quantitation of the assay.

[2] = Safety assessments (adverse events, ECG, C-SSRS) in the drug-drug interaction study
Description: Subjects checked into the clinic on day 1 and were confined through day 14. […] Subjects then received paroxetine on days 4 to 12 to achieve steady-state plasma concentrations of paroxetine by day 11. On day 11, another single dose of deutetrabenazine was administered. Triplicate 12-lead digital electrocardiograms (ECGs) were collected predose and for 10 h following deutetrabenazine dosing on day 1, and for 10 h on day 11, following paroxetine administration on day 10. […] Blood and urine samples were collected for clinical laboratory testing (hematology, serum chemistries, and urinalysis) at admission and after at least 10 h fasting and at study completion on day 14 or upon early withdrawal.

[3] = cited from earlier work; for Increase in exposure with paroxetine: after tetrabenazine administration
[4] = adverse events by treatment period, 24 subjects dosed
[5] = paroxetine administered with tetrabenazine
[6] = Subjects with EM phenotype (n = 15)
[7] = Subjects with IM phenotype (n = 8)

## COc1cc2c(cc1O)CCN1C[C@@H](CC(C)C)[C@@H](O)C[C@H]21 [9-O-desmethyl β-HTBZ]
[1]; in vivo
  Cmax: 4.5 (20) ng/mL
  AUC0−t lower by a factor in presence of paroxetine: 0.7
  Cmax lower by a factor in presence of paroxetine: 0.4
[1]; in vivo, im
  AUC0-t: 105 (33) ng × h/mL
  Cmax: 4.2 (45) ng/mL
  Tmax: 7.0 (4.0–24.0) h
  t1/2: 16.8 (13) (n = 7) h
[1]; in vivo, po, 22.5 mg
  Cmax: 4.4 (29) ng/mL

## Fc1ccc([C@@H]2CCNC[C@H]2COc2ccc3c(c2)OCO3)cc1 [Paroxetine, reference compound]
[1]; paroxetine 20 mg oral daily on days 4–12
  Steady-state exposure (mean trough plasma concentrations, visual inspection): achieved on day 10
[2]; [4]
  Back pain: 1 (4%) n (%)
  Chest discomfort: 1 (4%) n (%)
  Decreased appetite: 3 (13%) n (%)
  Dizziness: 1 (4%) n (%)
  Feeling abnormal: 1 (4%) n (%)
  Feeling hot: 1 (4%) n (%)
  Gastrointestinal Disorders: 5 (21%) n (%)
  General Disorders and Administration Site Conditions: 5 (21%) n (%)
  Gingival pain: 1 (4%) n (%)
  Headache: 5 (21%) n (%)
  Hypoaethesia oral: 1 (4%) n (%)
  Infections and Infestations: 1 (4%) n (%)
  Local swelling: 1 (4%) n (%)
  Metabolism and Nutritional disorders: 3 (13%) n (%)
  Muscle tightness: 1 (4%) n (%)
  Nervous System Disorders: 7 (29%) n (%)
  Paraesthesia oral: 1 (4%) n (%)
  Sensation of foreign body: 1 (4%) n (%)
  Sensation of heaviness: 0 (0%) n (%)
  Viral Infections: 1 (4%) n (%)
[2]; most common AE, reported 8 times by 7 subjects overall
  Headache, subjects reporting: 5 subjects

## COc1cc2c(cc1O)[C@H]1C[C@H](O)[C@H](CC(C)C)CN1CC2 [10-O-desmethyl β-HTBZ]
[1]; in vivo
  Quantifiability of plasma concentrations: appeared transiently in some subjects

## [2H]C([2H])([2H])Oc1cc2c(cc1OC([2H])([2H])[2H])C1CC(=O)C(CC(C)C)CN1CC2 (stereo not drawn) [Deutetrabenazine]
[1]; deutetrabenazine 22.5 mg oral, day 11 vs day 1
  Mean plasma concentrations in the presence and absence of paroxetine: comparable
[1]; in vivo
  Cmax: 0.3 (44) ng/mL
  Tmax: 3.5 (1.0–6.0) h
[1]; in vivo, im
  AUC0-t: 1.0 (55) ng × h/mL
  Cmax: 0.5 (66) ng/mL
  Tmax: 3.5 (1.0–6.0) h
[1]; in vivo, po, 22.5 mg
  Cmax: 0.4 (60) ng/mL
[2]; [4]
  Back pain: 0 (0%) n (%)
  Chest discomfort: 0 (0%) n (%)
  Decreased appetite: 0 (0%) n (%)
  Dizziness: 1 (4%) n (%)
  Feeling abnormal: 0 (0%) n (%)
  Feeling hot: 0 (0%) n (%)
  Gastrointestinal Disorders: 0 (0%) n (%)
  General Disorders and Administration Site Conditions: 0 (0%) n (%)
  Gingival pain: 0 (0%) n (%)
  Headache: 0 (0%) n (%)
  Hypoaethesia oral: 0 (%) n (%)
  Local swelling: 0 (0%) n (%)
  Metabolism and Nutritional disorders: 0 (0%) n (%)
  Muscle tightness: 0 (0%) n (%)
  Musculoskeletal and Connective Tissue Disorders: 0 (0%) n (%)
  Nausea: 0 (0%) n (%)
  Nervous System Disorders: 1 (4%) n (%)
  Paraesthesia oral: 0 (0%) n (%)
  Sensation of foreign body: 0 (0%) n (%)
  Sensation of heaviness: 0 (0%) n (%)
  Swollen tongue: 0 (0%) n (%)
  Vomiting: 0 (0%) n (%)
[2]; by treatment period, 24 subjects dosed
  Subjects with AEs, n (%): 3 (13%) n (%)
[2]; in vivo
  Infections and Infestations: 0 (0%) n (%)
  Viral Infections: 0 (0%) n (%)
[2]; single doses of 22.5 mg, alone or in the presence of steady-state paroxetine (20 mg daily), healthy subjects
  Safety and tolerability: safe and generally well tolerated

## COc1cc2c(cc1OC)[C@@H]1C[C@H](O)[C@@H](CC(C)C)CN1CC2 [α-HTBZ]
[3]
  Increase in exposure with paroxetine: threefold
[3]; [5]
  Increase of Cmax with paroxetine: 1.3 fold
[1]; All subjects (n = 23)
  % Ratio of LS means (90% CI) (day 11)/(day 1), AUC0−t: 163.3 (148.3–179.8) %
  % Ratio of LS means (90% CI) (day 11)/(day 1), AUC0−∞: 169.8 (153.8–187.5) %
  % Ratio of LS means (90% CI) (day 11)/(day 1), Cmax: 106.3 (90.0–125.4) %
[1]; [6]
  % Ratio of LS means (90% CI) (day 11)/(day 1), AUC0−t: 181.6 (162.4–302.0) %
  % Ratio of LS means (90% CI) (day 11)/(day 1), AUC0−∞: 185.0 (165.8–206.4) %
  % Ratio of LS means (90% CI) (day 11)/(day 1), Cmax: 119.9 (108.1–132.9) %
[1]; [7]
  % Ratio of LS means (90% CI) (day 11)/(day 1), AUC0−t: 192.2 (162.9–226.8) %
  % Ratio of LS means (90% CI) (day 11)/(day 1), AUC0−∞: 193.6 (164.4–228.0) %
  % Ratio of LS means (90% CI) (day 11)/(day 1), Cmax: 127.8 (111.8–146.1) %
[1]
  Increase of half-life (t1/2) in presence of paroxetine: 1.5 fold
  Increase of AUC0–∞ in presence of paroxetine: 1.8 fold
  Increase of Cmax in presence of paroxetine: 1.2 fold
[1]; in vivo
  Cmax: 35.8 (21) ng/mL
[1]; in vivo, im
  AUC0–∞: 546 (22) ng × h/mL
  Cmax: 40.5 (22) ng/mL
  Tmax: 4.0 (2.0–7.0) h
  t1/2: 13.0 (23) h
[1]; in vivo, po, 22.5 mg
  Cmax: 37.4 (22) ng/mL

## COc1cc2c(cc1OC)[C@H]1C[C@H](O)[C@H](CC(C)C)CN1CC2 [β-HTBZ]
[3]
  Increase in exposure with paroxetine: ninefold
[3]; [5]
  Increase of AUC with paroxetine: ninefold
[1]; All subjects (n = 23)
  % Ratio of LS means (90% CI) (day 11)/(day 1), AUC0−t: 484.7 (355.2–661.5) %
  % Ratio of LS means (90% CI) (day 11)/(day 1), AUC0−∞: 520.6 (388.9–697.0) %
  % Ratio of LS means (90% CI) (day 11)/(day 1), Cmax: 154.3 (126.0–189.0) %
[1]; [6]
  % Ratio of LS means (90% CI) (day 11)/(day 1), AUC0−t: 641.3 (537.3–765.4) %
  % Ratio of LS means (90% CI) (day 11)/(day 1), AUC0−∞: 649.9 (549.6–768.5) %
  % Ratio of LS means (90% CI) (day 11)/(day 1), Cmax: 216.4 (185.0–253.2) %
[1]; [7]
  % Ratio of LS means (90% CI) (day 11)/(day 1), AUC0−t: 744.6 (605.3–915.8) %
  % Ratio of LS means (90% CI) (day 11)/(day 1), AUC0−∞: 731.5 (595.0–899.3) %
  % Ratio of LS means (90% CI) (day 11)/(day 1), Cmax: 259.2 (216.7–310.1) %
[1]
  Increase of half-life (t1/2) in presence of paroxetine: 2.7 fold
  Increase of AUC0–∞ in presence of paroxetine: 5.6 fold
  Increase of Cmax in presence of paroxetine: 2.1 fold
[1]; in vivo
  Cmax: 20.4 (33) ng/mL
[1]; in vivo, im
  AUC0–∞: 333 (75) ng × h/mL
  Cmax: 32.6 (22) ng/mL
  Tmax: 4.0 (2.0–8.0) h
  t1/2: 7.9 (50) h
[1]; in vivo, po, 22.5 mg
  Cmax: 24.6 (38) ng/mL

## COc1cc2c(cc1O)CCN1C[C@@H](CC(C)C)[C@H](O)C[C@H]21 [9-O-desmethyl α-HTBZ]
[1]; in vivo
  Cmax: 1.4 (18) ng/mL
  AUC0−t lower by a factor in presence of paroxetine: 0.3
  Cmax lower by a factor in presence of paroxetine: 0.4
[1]; in vivo, im
  AUC0-t: 13.8 (65) ng × h/mL
  Cmax: 1.2 (45) ng/mL
  Tmax: 5.5 (3.5–12.0) h
[1]; in vivo, po, 22.5 mg
  Cmax: 1.3 (28) ng/mL
